Results as given in patent US12544395B2, “Combination compositions comprising a beta-lactamase inhibitor and uses thereof” (priority 2018, dated 2026).

Tests used:
Type in all cases: cell-based
K. pneumoniae 3151 = test: Broth microdilution MIC (strain enzymes: SHV-12, TEM-1); details: with inhibitor at 4 μg/mL
K. pneumoniae 319478 = test: Broth microdilution MIC (strain enzymes: SHV-12, CTX-M3 and TEM-1); details: with inhibitor at 4 μg/mL
K. oxytoca 169219 = test: Broth microdilution MIC (strain enzymes: TEM-1, CTXM-15); details: with inhibitor at 4 μg/mL
[1] = test system: ceftibuten-resistant Enterobacteriaceae expressing Class C (n=20); test: Checkerboard broth microdilution MIC, BLI concentration impact
Method: (§1) Minimum inhibitory concentrations (MICs) were determined by broth microdilution method following CLSI guidelines. Tested strains were ceftibuten-resistant Enterobacteriaceae expressing ESBL (n=20), KPC (n=20), OXA-48 (n=20) and/or Class C (n=20) beta-lactamases. For each isolate, one microtiter plate was prepared and formatted as a checkerboard with the BLI (Compound 2 or clavulanic acid) titrated down the plate and ceftibuten titrated across the plate. Each agent was also tested alone. MICs were determined as the well with the lowest concentration of ceftibuten without visible growth at each concentration of BLI.

[2] = test system: ceftibuten-resistant Enterobacteriaceae expressing OXA-48 (n=20); test: as above
Method: as §1

[3] = test system: ceftibuten-resistant Enterobacteriaceae, All isolates; test: as above
Method: as §1

K. pneumoniae ESBL 8 #1 = test: Broth microdilution MIC (strain enzymes: TEM-1, SHV-12); details: with inhibitor at 4 μg/mL
E. coli SI-PBLII = test: Broth microdilution MIC (strain enzymes: CTX-M2, TEM-1); details: with inhibitor at 4 μg/mL
E. coli ESBL 5 = test: Broth microdilution MIC (strain enzymes: CTX-M15, TEM-1); details: with inhibitor at 4 μg/mL
K. pneumoniae ESBL 10 = test: Broth microdilution MIC (strain enzymes: SHV-12, TEM-1); details: with inhibitor at 4 μg/mL
E. coli 1924 = test: Broth microdilution MIC (strain enzymes: TEM-12); details: with inhibitor at 4 μg/mL
E. coli SI-V502 = test: Broth microdilution MIC (strain enzymes: TEM-29, CTX-M15); details: with inhibitor at 4 μg/mL
E. coli 2150 = test: Broth microdilution MIC (strain enzymes: SHV-3, TEM-1); details: with inhibitor at 4 μg/mL
K. pneumoniae BAA 1705 = test: Broth microdilution MIC (strain KPC-producing); details: with inhibitor at 4 μg/mL
K. pneumoniae 115468 = test: Broth microdilution MIC (strain enzymes: TEM-1); details: with inhibitor at 4 μg/mL
K. pneumoniae 153239 = test: Broth microdilution MIC (strain enzymes: SHV-11, TEM-1); details: with inhibitor at 4 μg/mL
K. pneumoniae KPN 508 = test: Broth microdilution MIC (strain enzymes: SHV-7, TEM-1); details: with inhibitor at 4 μg/mL
E. coli 3174 = test: Broth microdilution MIC (strain enzymes: TEM-1, CTXM-15); details: with inhibitor at 4 μg/mL
K. oxytoca 496 #2 = test: Broth microdilution MIC (strain enzymes: SHV-105, TEM-1); details: with inhibitor at 4 μg/mL
K. pneumoniae KP 8 = test: Broth microdilution MIC (strain enzymes: TEM-10, TEM-1, CTX-M15); details: with inhibitor at 4 μg/mL
K. oxytoca 176877 = test: Broth microdilution MIC (strain enzymes: SHV-105); details: with inhibitor at 4 μg/mL
E. coli BAS 1 = test: Broth microdilution MIC (strain enzymes: none detected); details: with inhibitor at 4 μg/mL

SMILES: O=C(O)[C@H]1/C(=C/CO)O[C@@H]2CC(=O)N21 [Clavulanic acid, clavulanic acid, reference compound]
- MIC of cefalexin (LEX) (K. pneumoniae 3151): 0.125 µg/mL
- MIC of cefdinir (CDR) (K. pneumoniae 3151): 0.125 µg/mL
- MIC of cefixime (CFM) (K. pneumoniae 3151): 0.125 µg/mL
- MIC of ceftibuten (CTB) (K. pneumoniae 3151): 0.06 µg/mL
- MIC of cefalexin (LEX) (K. pneumoniae 319478): 0.5 µg/mL
- MIC of cefdinir (CDR) (K. pneumoniae 319478): 0.5 µg/mL
- MIC of cefixime (CFM) (K. pneumoniae 319478): 0.5 µg/mL
- MIC of ceftibuten (CTB) (K. pneumoniae 319478): 0.06 µg/mL
- MIC of cefalexin (LEX) (K. oxytoca 169219): 0.25 µg/mL
- MIC of cefdinir (CDR) (K. oxytoca 169219): 0.25 µg/mL
- MIC of cefixime (CFM) (K. oxytoca 169219): 0.125 µg/mL
- MIC of ceftibuten (CTB) (K. oxytoca 169219): 0.0149 µg/mL
- MIC50 ([1]; read-out: CTB MIC50): 2 µg/mL
- MIC90 ([1]; read-out: CTB MIC90): > 32 µg/mL
- MIC50 ([2]; read-out: CTB MIC50): 8 µg/mL
- MIC90 ([2]; read-out: CTB MIC90): > 32 µg/mL
- MIC50 ([3]; read-out: CTB MIC50): 4 µg/mL
- MIC90 ([3]; read-out: CTB MIC90): 32 µg/mL
- MIC of cefalexin (LEX) (K. pneumoniae ESBL 8 #1): 0.06 µg/mL
- MIC of cefdinir (CDR) (K. pneumoniae ESBL 8 #1): 0.06 µg/mL
- MIC of cefixime (CFM) (K. pneumoniae ESBL 8 #1): 0.06 µg/mL
- MIC of ceftibuten (CTB) (K. pneumoniae ESBL 8 #1): 0.03 µg/mL
- MIC of cefalexin (LEX) (E. coli SI-PBLII): 0.5 µg/mL
- MIC of cefdinir (CDR) (E. coli SI-PBLII): 0.5 µg/mL
- MIC of cefixime (CFM) (E. coli SI-PBLII): 1 µg/mL
- MIC of ceftibuten (CTB) (E. coli SI-PBLII): 0.5 µg/mL
- MIC of cefalexin (LEX) (E. coli ESBL 5): 1 µg/mL
- MIC of cefdinir (CDR) (E. coli ESBL 5): 1 µg/mL
- MIC of cefixime (CFM) (E. coli ESBL 5): 1 µg/mL
- MIC of ceftibuten (CTB) (E. coli ESBL 5): 0.5 µg/mL
- MIC of cefalexin (LEX) (K. pneumoniae ESBL 10): 0.5 µg/mL
- MIC of cefdinir (CDR) (K. pneumoniae ESBL 10): 0.5 µg/mL
- MIC of cefixime (CFM) (K. pneumoniae ESBL 10): 0.125 µg/mL
- MIC of ceftibuten (CTB) (K. pneumoniae ESBL 10): 0.125 µg/mL
- MIC of cefalexin (LEX) (E. coli 1924): 0.5 µg/mL
- MIC of cefdinir (CDR) (E. coli 1924): 0.5 µg/mL
- MIC of cefixime (CFM) (E. coli 1924): 1 µg/mL
- MIC of ceftibuten (CTB) (E. coli 1924): 0.5 µg/mL
- MIC of cefalexin (LEX) (E. coli SI-V502): 1 µg/mL
- MIC of cefdinir (CDR) (E. coli SI-V502): 1 µg/mL
- MIC of cefixime (CFM) (E. coli SI-V502): 1 µg/mL
- MIC of ceftibuten (CTB) (E. coli SI-V502): 0.5 µg/mL
- MIC of cefalexin (LEX) (E. coli 2150): 0.5 µg/mL
- MIC of cefdinir (CDR) (E. coli 2150): 0.5 µg/mL
- MIC of cefixime (CFM) (E. coli 2150): 1 µg/mL
- MIC of ceftibuten (CTB) (E. coli 2150): 0.5 µg/mL
- MIC of cefalexin (LEX) (K. pneumoniae BAA 1705): >32 µg/mL
- MIC of cefdinir (CDR) (K. pneumoniae BAA 1705): >32 µg/mL
- MIC of cefixime (CFM) (K. pneumoniae BAA 1705): >32 µg/mL
- MIC of ceftibuten (CTB) (K. pneumoniae BAA 1705): 8 µg/mL
- MIC of cefalexin (LEX) (K. pneumoniae 115468): 0.06 µg/mL
- MIC of cefdinir (CDR) (K. pneumoniae 115468): 0.06 µg/mL
- MIC of cefixime (CFM) (K. pneumoniae 115468): 0.125 µg/mL
- MIC of ceftibuten (CTB) (K. pneumoniae 115468): 0.25 µg/mL
- MIC of cefalexin (LEX) (K. pneumoniae 153239): 0.25 µg/mL
- MIC of cefdinir (CDR) (K. pneumoniae 153239): 0.25 µg/mL
- MIC of cefixime (CFM) (K. pneumoniae 153239): 0.25 µg/mL
- MIC of ceftibuten (CTB) (K. pneumoniae 153239): 0.06 µg/mL
- MIC of cefalexin (LEX) (K. pneumoniae KPN 508): 0.125 µg/mL
- MIC of cefdinir (CDR) (K. pneumoniae KPN 508): 0.125 µg/mL
- MIC of cefixime (CFM) (K. pneumoniae KPN 508): 0.25 µg/mL
- MIC of ceftibuten (CTB) (K. pneumoniae KPN 508): 0.06 µg/mL
- MIC of cefalexin (LEX) (E. coli 3174): 0.25 µg/mL
- MIC of cefdinir (CDR) (E. coli 3174): 0.25 µg/mL
- MIC of cefixime (CFM) (E. coli 3174): 0.5 µg/mL
- MIC of ceftibuten (CTB) (E. coli 3174): 0.5 µg/mL
- MIC of cefalexin (LEX) (K. oxytoca 496 #2): 0.06 µg/mL
- MIC of cefdinir (CDR) (K. oxytoca 496 #2): 0.06 µg/mL
- MIC of cefixime (CFM) (K. oxytoca 496 #2): 0.03 µg/mL
- MIC of ceftibuten (CTB) (K. oxytoca 496 #2): 0.125 µg/mL
- MIC of cefalexin (LEX) (K. pneumoniae KP 8): 0.125 µg/mL
- MIC of cefdinir (CDR) (K. pneumoniae KP 8): 0.125 µg/mL
- MIC of cefixime (CFM) (K. pneumoniae KP 8): 0.06 µg/mL
- MIC of ceftibuten (CTB) (K. pneumoniae KP 8): 0.06 µg/mL
- MIC of cefalexin (LEX) (K. oxytoca 176877): 2 µg/mL
- MIC of cefdinir (CDR) (K. oxytoca 176877): 2 µg/mL
- MIC of cefixime (CFM) (K. oxytoca 176877): 0.25 µg/mL
- MIC of ceftibuten (CTB) (K. oxytoca 176877): 0.125 µg/mL
- MIC of cefalexin (LEX) (E. coli BAS 1): 16 µg/mL
- MIC of cefdinir (CDR) (E. coli BAS 1): 16 µg/mL
- MIC of cefixime (CFM) (E. coli BAS 1): >32 µg/mL
- MIC of ceftibuten (CTB) (E. coli BAS 1): >32 µg/mL
